Assay results from patent publication US20170073337A1, “DIHYDROTHIAZINE AND DIHYDROOXAZINE DERIVATIVES HAVING BACE1 INHIBITORY ACTIVITY” (Shionogi & Co., Ltd., priority 2014, published 2017).
≈ marks a conversion by molar mass, not a printed value. Where two headings read alike, the source gives them in different places.

How the values were obtained:
[1] = target: T1, human ether-a-go-go related gene (hERG) channel (Homo sapiens, UniProt Q12809); test: hERG test; assay type: cell-based; conditions: % inhibition of IKr tail peak current at 3 uM; CHO cells expressing hERG
T1 construct: expressed in transfected cells; host or cells: CHO cells
T1 sequence (Q12809 whole entry): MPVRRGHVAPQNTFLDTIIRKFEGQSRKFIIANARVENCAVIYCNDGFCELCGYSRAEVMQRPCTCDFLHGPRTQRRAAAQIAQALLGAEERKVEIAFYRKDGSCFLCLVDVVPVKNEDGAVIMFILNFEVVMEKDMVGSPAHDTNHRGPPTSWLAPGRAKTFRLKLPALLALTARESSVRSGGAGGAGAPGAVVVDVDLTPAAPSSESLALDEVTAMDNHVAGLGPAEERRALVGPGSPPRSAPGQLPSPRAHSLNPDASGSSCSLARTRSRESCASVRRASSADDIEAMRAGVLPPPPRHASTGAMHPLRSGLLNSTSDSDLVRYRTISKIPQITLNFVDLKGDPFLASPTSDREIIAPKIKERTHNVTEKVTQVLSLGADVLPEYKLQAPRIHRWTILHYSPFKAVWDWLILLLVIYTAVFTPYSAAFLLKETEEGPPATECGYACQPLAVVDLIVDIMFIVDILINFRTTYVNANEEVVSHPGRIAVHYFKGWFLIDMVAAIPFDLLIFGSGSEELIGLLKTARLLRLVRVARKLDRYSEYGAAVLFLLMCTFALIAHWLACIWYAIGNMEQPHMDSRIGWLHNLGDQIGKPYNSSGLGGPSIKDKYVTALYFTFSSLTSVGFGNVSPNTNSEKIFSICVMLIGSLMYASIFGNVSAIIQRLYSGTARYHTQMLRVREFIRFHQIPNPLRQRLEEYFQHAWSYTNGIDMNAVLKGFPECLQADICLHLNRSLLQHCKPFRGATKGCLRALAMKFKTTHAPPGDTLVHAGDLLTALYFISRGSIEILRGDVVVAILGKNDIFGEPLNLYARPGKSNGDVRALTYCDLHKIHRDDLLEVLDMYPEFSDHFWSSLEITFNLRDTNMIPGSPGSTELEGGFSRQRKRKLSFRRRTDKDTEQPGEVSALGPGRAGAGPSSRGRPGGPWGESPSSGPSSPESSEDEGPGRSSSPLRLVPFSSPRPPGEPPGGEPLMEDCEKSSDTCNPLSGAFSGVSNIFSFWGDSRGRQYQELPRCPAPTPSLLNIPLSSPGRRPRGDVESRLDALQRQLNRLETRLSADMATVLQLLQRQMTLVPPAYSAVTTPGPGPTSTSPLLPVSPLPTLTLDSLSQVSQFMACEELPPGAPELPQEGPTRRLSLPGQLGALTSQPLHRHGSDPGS
In short: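 Automated whole-cell patch clamp was run on CHO cells carrying human hERG, held at −80 mV. Current was recorded during the −50 mV repolarization (2 s) that followed a 2 s +20 mV step, after a −50 mV leak pulse.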

CYP1A2 = target: T2, CYP1A2 (Homo sapiens, UniProt P05177); test: CYP inhibition test (CYP1A2); assay type: in vitro ADME; conditions: pooled human liver microsomes; 7-ethoxyresorufin O-deethylation
T2 construct: The commercially available pooled human liver microsomes are used as an enzyme resource; from tissue; host or cells: pooled human liver microsomes
T2 sequence (P05177 1-516): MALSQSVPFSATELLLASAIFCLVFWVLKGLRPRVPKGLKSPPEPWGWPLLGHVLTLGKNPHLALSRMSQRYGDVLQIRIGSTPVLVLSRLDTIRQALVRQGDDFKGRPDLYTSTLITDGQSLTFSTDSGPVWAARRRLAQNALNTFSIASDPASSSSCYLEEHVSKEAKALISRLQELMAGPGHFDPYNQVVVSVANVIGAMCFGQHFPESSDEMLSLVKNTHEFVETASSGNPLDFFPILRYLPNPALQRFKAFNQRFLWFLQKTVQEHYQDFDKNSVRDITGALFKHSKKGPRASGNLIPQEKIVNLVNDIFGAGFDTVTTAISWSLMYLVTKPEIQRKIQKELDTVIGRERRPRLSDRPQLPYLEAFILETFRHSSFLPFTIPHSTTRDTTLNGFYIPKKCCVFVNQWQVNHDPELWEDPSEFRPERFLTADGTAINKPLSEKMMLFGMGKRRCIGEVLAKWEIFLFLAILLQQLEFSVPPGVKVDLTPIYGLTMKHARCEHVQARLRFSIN
In short: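 Inhibition of CYP1A2 was measured in commercially available pooled human liver microsomes (0.2 mg protein/mL) using 7-ethoxyresorufin O-deethylation with 0.5 μmol/L ethoxyresorufin. Test compound at 1, 5, 10, 20 μmol/L in […] Hepes buffer was incubated at 37° C. after NADPH addition; methanol/acetonitrile=1/1 (v/v) stopped the reaction, and resorufin was read fluorescently.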

Solubility test = assay type: physicochemical
In short: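 Dissolved concentration determined by LC/MS or SPE/MS (absolute calibration) in diluted filtrates, after 2 μL of 10 mmol/L DMSO stock was added to 198 μL JP 1st or JP 2nd fluid and equilibrated either 1 h with shaking at room temperature or 16 h standing at 25 °C.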

Metabolic stability test = assay type: in vitro ADME; conditions: human liver microsomes, 37° C., 30 minutes, NADPH
In short: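 Parent compound was measured by LC/MS/MS or SPE/MS after a methanol/acetonitrile quench and reported as % remaining, with the 0 min sample set to 100%. Incubations ran 30 min at 37 °C in pH 7.4 Tris buffer containing pooled human liver microsomes at 0.5 mg protein/mL and 1 mmol/L NADPH.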

CYP2C19 = target: T3, CYP2C19 (Homo sapiens, UniProt P33261); test: CYP inhibition test (CYP2C19); assay type: in vitro ADME; conditions: pooled human liver microsomes; mephenytoin 4′-hydroxylation
T3 construct: The commercially available pooled human liver microsomes are used as an enzyme resource; from tissue; host or cells: pooled human liver microsomes
T3 sequence (P33261 whole entry): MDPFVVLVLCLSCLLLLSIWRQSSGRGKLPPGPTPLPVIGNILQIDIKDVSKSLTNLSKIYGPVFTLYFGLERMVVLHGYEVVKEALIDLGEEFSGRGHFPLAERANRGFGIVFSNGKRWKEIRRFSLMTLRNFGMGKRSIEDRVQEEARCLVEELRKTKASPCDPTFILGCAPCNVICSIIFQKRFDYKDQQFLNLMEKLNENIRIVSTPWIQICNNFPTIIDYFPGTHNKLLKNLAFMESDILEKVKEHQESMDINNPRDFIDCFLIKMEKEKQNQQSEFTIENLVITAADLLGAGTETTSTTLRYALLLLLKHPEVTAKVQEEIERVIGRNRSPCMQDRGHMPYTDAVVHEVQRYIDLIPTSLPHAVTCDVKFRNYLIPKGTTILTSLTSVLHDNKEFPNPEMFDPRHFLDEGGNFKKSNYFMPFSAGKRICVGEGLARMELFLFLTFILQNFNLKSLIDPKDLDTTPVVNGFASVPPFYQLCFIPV
In short: (§1)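 Pooled human liver microsomes (0.2 mg protein/mL) were incubated at 37 °C with NADPH, compound at 1, 5, 10, 20 μmol/L and marker substrates: tolbutamide 100 μmol/L (2C9), S-mephenytoin 50 μmol/L (2C19), dextromethorphan 5 μmol/L (2D6), terfenadine 1 μmol/L (3A4). Metabolites were measured by LC/MS/MS; IC50 came from logistic fitting against DMSO control.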

CYP3A4 = target: T4, CYP3A4 (Homo sapiens, UniProt P08684); test: CYP inhibition test (CYP3A4); assay type: in vitro ADME; conditions: pooled human liver microsomes; terfenadine hydroxylation
T4 construct: The commercially available pooled human liver microsomes are used as an enzyme resource; from tissue; host or cells: pooled human liver microsomes
T4 sequence (P08684 whole entry): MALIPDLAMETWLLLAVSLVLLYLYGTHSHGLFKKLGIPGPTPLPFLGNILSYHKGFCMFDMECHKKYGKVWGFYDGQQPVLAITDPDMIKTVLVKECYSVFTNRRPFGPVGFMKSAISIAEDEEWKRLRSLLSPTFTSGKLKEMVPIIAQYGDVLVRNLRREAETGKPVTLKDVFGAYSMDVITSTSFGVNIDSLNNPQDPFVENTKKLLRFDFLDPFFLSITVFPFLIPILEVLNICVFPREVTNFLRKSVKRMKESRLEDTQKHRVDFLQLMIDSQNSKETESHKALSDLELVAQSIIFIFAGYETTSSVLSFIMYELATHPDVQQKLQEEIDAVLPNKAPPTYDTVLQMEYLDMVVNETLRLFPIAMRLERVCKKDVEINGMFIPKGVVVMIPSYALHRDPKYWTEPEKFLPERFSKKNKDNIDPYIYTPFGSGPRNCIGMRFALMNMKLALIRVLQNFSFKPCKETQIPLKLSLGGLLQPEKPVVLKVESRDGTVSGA
In short: as §1

[2] = JP 1st fluid, 25 °C, pH 1.2, simulated gastric fluid, kinetic from dmso stock, read-out: JP1
[3] = JP 2nd fluid A, 25 °C, pH 6.8, aqueous buffer, kinetic from dmso stock, read-out: JP2_μM
[4] = JP 1st fluid, pH 1.2, simulated gastric fluid, kinetic from dmso stock, read-out: JP1
[5] = JP 2nd fluid A, pH 6.8, aqueous buffer, kinetic from dmso stock, read-out: JP2_μM
[6] = solubility in JP 2nd fluid B, 1% DMSO, *2: shaken for 1 hour at room temperature, read-out: JP2_μM

SMILES	hERG_3 uM_% [1]	IC50 (CYP1A2)	solubility kinetic at 16 h (Solubility test; [2])	solubility kinetic at 16 h (Solubility test; [3])	remaining % (Metabolic stability test)	IC50 (CYP2C19)	IC50 (CYP3A4)	solubility kinetic at 1 h (Solubility test; [4])	solubility kinetic at 1 h (Solubility test; [5])	solubility kinetic at 16 h (Solubility test; [6])	solubility kinetic at 1 h (Solubility test; JP 2nd fluid B, pH 6.8, aqueous buffer, kinetic from dmso stock, read-out: JP2_μM)
CO[C@H]1[C@@H](CF)OC(N)=N[C@]1(C)c1cc(NC(=O)c2cnc(OCF)cn2)ccc1Cl [Compound I-19]	18.8%	≥ 20 µM	37.1 µM (≈ 16.9 µg/mL)	> 50 µM	69.9%	≥ 20 µM	≥ 20 µM	–	–	–	–
CO[C@H]1[C@@H](CF)OC(N)=N[C@]1(C)c1cc(NC(=O)c2ccc(F)cn2)ccc1Cl [Compound I-20]	30.4%	≥ 20 µM	38.9 µM (≈ 16.5 µg/mL)	> 50 µM	75.4%	≥ 20 µM	≥ 20 µM	–	–	–	–
CO[C@H]1[C@@H](CF)OC(N)=N[C@]1(C)c1cc(NC(=O)c2cnc(OCF)cn2)ccc1F [Compound I-24]	6.7%	≥ 20 µM	38.8 µM (≈ 17 µg/mL)	> 50 µM	95.5%	≥ 20 µM	≥ 20 µM	–	–	–	–
CO[C@H]1[C@@H](CF)OC(N)=N[C@]1(C)c1cc(NC(=O)c2ccc(F)cn2)ccc1F [Compound I-25]	41.9%	≥ 20 µM	46.7 µM (≈ 19.1 µg/mL)	> 50 µM	89.1%	≥ 20 µM	≥ 20 µM	–	–	–	–
C[C@@H]1[C@@H](C(F)(F)F)OC(N)=N[C@]1(C)c1cc(NC(=O)c2ccc(C#N)cn2)ccc1F [Compound I-27]	28.8%	≥ 20 µM	39.7 µM (≈ 17.3 µg/mL)	> 50 µM	84.7%	≥ 20 µM	≥ 20 µM	–	–	–	–
C[C@H]1[C@H](C(F)(F)F)OC(N)=N[C@]1(C)c1cc(NC(=O)c2ccc(C#N)cn2)ccc1F [Compound I-29]	45.4%	≥ 10 µM	35 µM (≈ 15.2 µg/mL)	> 50 µM	98.2%	≥ 20 µM	≥ 20 µM	–	–	–	–
Cc1nc(C(=O)Nc2ccc(F)c([C@@]3(C)N=C(N)O[C@H](C(F)(F)F)[C@@H]3C)c2)co1 [Compound I-32]	15.2%	≥ 20 µM	> 50 µM	> 50 µM	94.6%	≥ 20 µM	≥ 20 µM	–	–	–	–
C[C@H]1[C@@H](C(F)F)OC(N)=N[C@]1(C)c1cc(NC(=O)c2cnc(OCF)cn2)ccc1F [Compound I-33]	21.9%	≥ 20 µM	–	–	87.5%	≥ 20 µM	≥ 20 µM	39.4 µM (≈ 17.4 µg/mL)	> 50 µM	–	–
CC(F)(F)[C@H]1OC(N)=N[C@](C)(c2cc(NC(=O)c3ccc(C#N)cn3)ccc2F)[C@H]1F [Compound I-40]	48.4%	≥ 20 µM	–	–	106%	≥ 20 µM	≥ 20 µM	> 50 µM	> 50 µM	–	–
COc1cnc(C(=O)Nc2ccc(F)c([C@@]3(C)N=C(N)O[C@H](C(C)(F)F)[C@@H]3F)c2)cn1 [Compound I-42]	15.5%	≥ 20 µM	–	–	68.2%	≥ 20 µM	≥ 20 µM	> 50 µM	> 50 µM	–	–
C[C@]1(c2cc(NC(=O)c3cnc(OCF)cn3)ccc2F)N=C(N)OCC12CC(F)(F)C2 [Compound I-44]	28.9%	≥ 20 µM	34 µM (≈ 15.4 µg/mL)	> 50 µM	86.4%	≥ 20 µM	≥ 20 µM	–	–	–	–
C[C@]1(c2cc(NC(=O)c3ccc(F)cn3)ccc2F)N=C(N)OCC12CC(F)(F)C2 [Compound I-45]	51.6%	≥ 20 µM	35.8 µM (≈ 15.1 µg/mL)	> 50 µM	93.5%	≥ 20 µM	≥ 20 µM	–	–	–	–
C[C@H]1SC(N)=N[C@](C)(c2cc(NC(=O)c3cnc(OC(F)F)cn3)ccc2F)[C@H]1F [Compound I-47]	40.4%	≥ 20 µM	–	–	96.9%	≥ 20 µM	≥ 20 µM	> 50 µM	30.5 µM (≈ 13.5 µg/mL)	–	–
C[C@H]1SC(N)=N[C@](C)(c2cc(NC(=O)c3coc(CF)n3)ccc2F)[C@H]1F [Compound I-49]	27.2%	≥ 20 µM	–	–	95.4%	≥ 20 µM	≥ 20 µM	> 50 µM	> 50 µM	–	–
C[C@H]1SC(N)=N[C@](C)(c2cc(NC(=O)c3ccc(OCF)cn3)ccc2F)[C@H]1F [Compound I-51]	39.4%	≥ 20 µM	–	–	76.5%	≥ 20 µM	≥ 10 µM	> 50 µM	–	>50 µM	–
Cc1cc(C#N)cnc1C(=O)Nc1ccc(F)c([C@@]2(C)N=C(N)S[C@H](C)[C@@H]2F)c1 [Compound I-52]	55.7%	≥ 20 µM	–	–	60.3%	≥ 20 µM	≥ 20 µM	> 50 µM	–	–	13.9 µM (≈ 5.78 µg/mL)
C[C@H]1SC(N)=N[C@](C)(c2cc(NC(=O)c3ncc(OCC(F)(F)F)cn3)ccc2F)[C@H]1F [Compound I-53]	47.9%	≥ 20 µM	–	–	109%	≥ 20 µM	≥ 20 µM	> 50 µM	–	>50 µM	–
